The source of these data is ChEMBL document CHEMBL1142775, “Functionalized head-to-head hairpin polyamides: synthesis, double-stranded DNA-binding activity and affinity” (Bioorg Med Chem Lett, 2005).

The assay addresses Nucleic Acid. In words: Dissociation constant of conjugate DNA complexes in 0.05 HEPES buffer of pH 7.3, at room temperature. The assay is classed as nucleic-acid assay.

In the case of `CN(C)CCCNC(=O)c1cc(NC(=O)c2cc(NC(=O)c3cc(NC(=O)CCCNC(=O)c4cc(NC(=O)c5cc(NC(=O)c6cc(NC(=O)CCCNP(=O)(CCCCN7C(=O)c8ccccc8C7=O)NCCCC(=O)Nc7cc(C(=O)Nc8cc(C(=O)Nc9cc(C(=O)NCCCC(=O)Nc%10cc(C(=O)Nc%11cc(C(=O)Nc%12cc(C(=O)NCCCN(C)C)n(C)c%12)n(C)c%11)n(C)c%10)n(C)c9)n(C)c8)n(C)c7)cn6C)cn5C)cn4C)cn3C)cn2C)cn1C`, the Kd (as a rule, the concentration at which binding is half-saturated) is 0.034 µM. For the compound `CCCCC(=O)N(CC(=O)NCCCC(=O)Nc1cc(C(=O)Nc2cc(C(=O)Nc3cc(C(=O)NCCCC(=O)Nc4cc(C(=O)Nc5cc(C(=O)Nc6cc(C(=O)NCCCN(C)C)n(C)c6)n(C)c5)n(C)c4)n(C)c3)n(C)c2)n(C)c1)CC(=O)NCCCC(=O)Nc1cc(C(=O)Nc2cc(C(=O)Nc3cc(C(=O)NCCCC(=O)Nc4cc(C(=O)Nc5cc(C(=O)Nc6cc(C(=O)NCCCN(C)C)n(C)c6)n(C)c5)n(C)c4)n(C)c3)n(C)c2)n(C)c1`, the Kd worked out at 0.0043 µM. As for `CCCCC(=O)NCCCCCCOP(=O)(NCCCC(=O)Nc1cc(C(=O)Nc2cc(C(=O)Nc3cc(C(=O)NCCCC(=O)Nc4cc(C(=O)Nc5cc(C(=O)Nc6cc(C(=O)NCCCN(C)C)n(C)c6)n(C)c5)n(C)c4)n(C)c3)n(C)c2)n(C)c1)NCCCC(=O)Nc1cc(C(=O)Nc2cc(C(=O)Nc3cc(C(=O)NCCCC(=O)Nc4cc(C(=O)Nc5cc(C(=O)Nc6cc(C(=O)NCCCN(C)C)n(C)c6)n(C)c5)n(C)c4)n(C)c3)n(C)c2)n(C)c1`, the figure is 0.018 µM.

In turn, `CCCCC(=O)NCCCN(CC(=O)NCCCC(=O)Nc1cc(C(=O)Nc2cc(C(=O)Nc3cc(C(=O)NCCCC(=O)Nc4cc(C(=O)Nc5cc(C(=O)Nc6cc(C(=O)NCCCN(C)C)n(C)c6)n(C)c5)n(C)c4)n(C)c3)n(C)c2)n(C)c1)CC(=O)NCCCC(=O)Nc1cc(C(=O)Nc2cc(C(=O)Nc3cc(C(=O)NCCCC(=O)Nc4cc(C(=O)Nc5cc(C(=O)Nc6cc(C(=O)NCCCN(C)C)n(C)c6)n(C)c5)n(C)c4)n(C)c3)n(C)c2)n(C)c1` registered a Kd of 0.0048 µM.
